Reference: ChEMBL document CHEMBL1201862, “PubChem BioAssay data set” (2004)
Activity calls are given as the source filed them.

Legend:
Orexin receptor type 2 [1] = target: T1, Orexin receptor type 2 (Homo sapiens, UniProt O43614); experiment: Counterscreen assay for antagonists of the orexin 1 receptor (OX1R; HCRTR1): Fluorescence-based cell-based dose response assay for antagonists of the orexin 2 receptor (OX2R; HCRTR2), run by assay provider.; type: functional
CHO-K1 = experiment: (§1) Counterscreen for antagonists of the orexin 1 receptor (OX1R; HCRTR1): Homogeneous time resolved fluorescence (HTRF)-based cell-based dose response assay to identify antagonists of the parental CHO-K1 cell line. [Related pubchem assays (depositor defined):AID434989, AID435008, AID463079, AID485270, AID492963, AID492964, AID492965, AID493232, AID504699, AID504701]; type: functional; conditions: Cricetulus griseus
[2] = target: T2, Orexin/Hypocretin receptor type 1 (Homo sapiens, UniProt O43613); experiment: Homogeneous Time Resolved Fluorescence (HTRF)-based cell-based high throughput dose response assay for antagonists of the orexin 1 receptor (OX1R; HCRTR1). [Related pubchem assays (depositor defined):AID434989, AID435008, AID463079, AID485270, AID492963, AID492964, AID492965, AID493232, AID504717, AID504718]; type: functional
T2 sequence (O43613 whole entry): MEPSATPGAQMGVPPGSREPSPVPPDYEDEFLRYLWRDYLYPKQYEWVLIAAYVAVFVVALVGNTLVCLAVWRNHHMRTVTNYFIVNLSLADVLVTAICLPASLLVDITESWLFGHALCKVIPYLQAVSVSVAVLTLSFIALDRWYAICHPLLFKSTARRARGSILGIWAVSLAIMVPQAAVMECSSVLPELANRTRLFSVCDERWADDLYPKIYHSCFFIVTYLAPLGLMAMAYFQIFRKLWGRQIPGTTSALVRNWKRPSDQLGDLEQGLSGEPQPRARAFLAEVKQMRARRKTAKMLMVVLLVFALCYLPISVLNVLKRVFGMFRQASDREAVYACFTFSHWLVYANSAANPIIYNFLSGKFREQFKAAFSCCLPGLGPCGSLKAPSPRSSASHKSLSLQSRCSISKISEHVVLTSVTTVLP

[3] = microbe, parasite or virus in culture; type: functional; conditions: Mycobacterium tuberculosis
[4] = target: T2, Orexin/Hypocretin receptor type 1; experiment: Fluorescence-based cell-based high throughput dose response assay for antagonists of the orexin 1 receptor (OX1R; HCRTR1). [Related pubchem assays (depositor defined):AID434989, AID435008, AID463079, AID485270, AID492963, AID492964, AID492965, AID493232, AID504717, AID504718]; type: functional
Orexin receptor type 2 [5] = target: T1, Orexin receptor type 2; experiment: Counterscreen assay for antagonists of the orexin 1 receptor (OX1R; HCRTR1): Homogeneous Time Resolved Fluorescence (HTRF)-based cell-based dose response assay for antagonists of the orexin 2 receptor (OX2R; HCRTR2), run by assay provider.; type: functional
[6] = as §1, with “Fluorescence-based” for “Homogeneous time resolved fluorescence (HTRF)-based”, “cell-based high throughput” for “cell-based”, “CHO” for “CHO-K1”; type: functional
[7] = target: Dual specificity protein kinase CLK4 (Homo sapiens, UniProt Q9HAZ1); type: functional
[8] = target: Homeodomain-interacting protein kinase 2 (Homo sapiens, UniProt Q9H2X6); type: functional;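 note: measured within a kinome-wide kinase profiling panel, HIPK2 being one panel member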
Homeodomain-interacting protein kinase 2, sequence (Q9H2X6 whole entry): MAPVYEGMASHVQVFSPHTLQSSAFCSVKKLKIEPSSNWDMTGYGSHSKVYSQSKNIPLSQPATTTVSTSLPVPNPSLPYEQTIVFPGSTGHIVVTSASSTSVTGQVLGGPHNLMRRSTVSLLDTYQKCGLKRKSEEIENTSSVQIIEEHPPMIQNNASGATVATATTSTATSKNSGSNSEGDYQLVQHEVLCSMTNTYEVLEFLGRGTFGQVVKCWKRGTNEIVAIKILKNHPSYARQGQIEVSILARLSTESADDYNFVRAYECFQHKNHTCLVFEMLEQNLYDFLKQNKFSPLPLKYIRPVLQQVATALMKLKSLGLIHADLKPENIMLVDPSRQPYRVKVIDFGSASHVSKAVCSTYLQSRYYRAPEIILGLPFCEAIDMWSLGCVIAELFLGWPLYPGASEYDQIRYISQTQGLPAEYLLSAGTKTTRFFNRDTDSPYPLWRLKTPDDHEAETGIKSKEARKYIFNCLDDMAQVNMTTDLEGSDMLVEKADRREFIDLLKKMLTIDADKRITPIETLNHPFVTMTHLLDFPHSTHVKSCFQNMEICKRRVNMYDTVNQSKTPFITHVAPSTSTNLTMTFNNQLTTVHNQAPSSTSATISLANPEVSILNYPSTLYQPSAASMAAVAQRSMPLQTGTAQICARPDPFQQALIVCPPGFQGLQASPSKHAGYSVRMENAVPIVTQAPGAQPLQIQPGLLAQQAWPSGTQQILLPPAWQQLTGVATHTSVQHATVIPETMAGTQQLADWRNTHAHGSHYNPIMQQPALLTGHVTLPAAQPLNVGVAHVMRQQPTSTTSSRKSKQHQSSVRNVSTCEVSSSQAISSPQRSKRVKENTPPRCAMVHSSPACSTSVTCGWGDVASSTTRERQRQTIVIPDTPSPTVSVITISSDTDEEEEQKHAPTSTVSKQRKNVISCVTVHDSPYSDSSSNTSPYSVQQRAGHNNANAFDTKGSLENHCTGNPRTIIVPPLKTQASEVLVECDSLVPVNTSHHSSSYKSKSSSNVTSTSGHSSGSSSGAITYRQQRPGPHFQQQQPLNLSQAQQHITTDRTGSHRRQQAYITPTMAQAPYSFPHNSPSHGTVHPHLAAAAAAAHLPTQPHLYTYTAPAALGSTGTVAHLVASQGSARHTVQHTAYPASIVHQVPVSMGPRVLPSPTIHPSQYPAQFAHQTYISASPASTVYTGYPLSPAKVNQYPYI

[9] = target: MAP kinase-interacting serine/threonine-protein kinase 2 (Homo sapiens, UniProt Q9HBH9); type: functional
[10] = target: Cell division cycle 7-related protein kinase (Homo sapiens, UniProt O00311); type: functional;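 note: value obtained from a kinome-wide kinase panel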
[11] = target: Serine/threonine-protein kinase pim-1 (Homo sapiens, UniProt P11309); type: functional
[12] = target: Mitogen-activated protein kinase kinase kinase kinase 4 (Homo sapiens, UniProt O95819); type: functional
[13] = target: cAMP-dependent protein kinase catalytic subunit alpha (Homo sapiens, UniProt P17612); type: functional
[14] = target: Glycogen synthase kinase-3 beta (Homo sapiens, UniProt P49841); type: functional;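 note: value comes from a broad kinome profiling panel, with GSK3B as the panel member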
Glycogen synthase kinase-3 beta, sequence (P49841 whole entry): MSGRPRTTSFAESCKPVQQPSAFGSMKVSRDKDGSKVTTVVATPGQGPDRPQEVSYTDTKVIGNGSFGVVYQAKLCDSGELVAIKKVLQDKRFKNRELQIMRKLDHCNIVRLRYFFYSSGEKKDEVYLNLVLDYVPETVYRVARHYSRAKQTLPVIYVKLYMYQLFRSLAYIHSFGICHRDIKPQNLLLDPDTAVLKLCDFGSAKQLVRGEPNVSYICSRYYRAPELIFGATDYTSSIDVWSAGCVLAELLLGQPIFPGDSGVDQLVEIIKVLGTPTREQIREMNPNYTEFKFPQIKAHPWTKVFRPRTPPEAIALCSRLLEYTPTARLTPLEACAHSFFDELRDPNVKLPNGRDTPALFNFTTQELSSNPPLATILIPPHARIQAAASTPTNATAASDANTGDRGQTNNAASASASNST

[15] = target: Interleukin-1 receptor-associated kinase 4 (Homo sapiens, UniProt Q9NWZ3); type: functional
Interleukin-1 receptor-associated kinase 4, sequence (Q9NWZ3 whole entry): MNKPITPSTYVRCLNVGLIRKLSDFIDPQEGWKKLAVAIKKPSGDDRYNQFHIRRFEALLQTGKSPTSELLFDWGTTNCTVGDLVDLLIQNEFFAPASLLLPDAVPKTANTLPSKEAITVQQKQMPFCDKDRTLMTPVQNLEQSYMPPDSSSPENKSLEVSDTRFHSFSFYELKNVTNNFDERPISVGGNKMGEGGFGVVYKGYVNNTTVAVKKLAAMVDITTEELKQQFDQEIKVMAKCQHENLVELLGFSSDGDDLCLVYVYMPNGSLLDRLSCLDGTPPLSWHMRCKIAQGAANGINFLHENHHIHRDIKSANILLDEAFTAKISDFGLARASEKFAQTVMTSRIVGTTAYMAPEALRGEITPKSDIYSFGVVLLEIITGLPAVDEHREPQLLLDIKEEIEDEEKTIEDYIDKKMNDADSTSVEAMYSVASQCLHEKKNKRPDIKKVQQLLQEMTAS

[16] = target: Heat shock protein HSP 90-alpha (Homo sapiens, UniProt P07900); type: functional, organism-based
[17] = target: T3, V-type proton ATPase subunit c' (Saccharomyces cerevisiae S288c, UniProt P32842); experiment: Dose Response of Small Molecules that Regulate V-ATPase Proton Transport in Yeast using pHLuorin, Cherry Pick 2.; type: functional; conditions: read-out: EC50_MICROM
T3 sequence (P32842 whole entry): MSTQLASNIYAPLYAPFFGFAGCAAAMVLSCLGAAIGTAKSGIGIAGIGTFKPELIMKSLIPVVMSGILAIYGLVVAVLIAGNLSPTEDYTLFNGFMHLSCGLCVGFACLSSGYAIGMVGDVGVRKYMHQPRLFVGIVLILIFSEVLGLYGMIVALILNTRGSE

[18] = target: T4, Microphthalmia-associated transcription factor (Homo sapiens, UniProt O75030); experiment: TRPM1 promoter luciferase signal decrease, dose response, MITF inhibitor project, cell-based, SK-MEL-5, cherry-picked, set 3 (AID 493073); type: functional
T4 sequence (O75030 whole entry): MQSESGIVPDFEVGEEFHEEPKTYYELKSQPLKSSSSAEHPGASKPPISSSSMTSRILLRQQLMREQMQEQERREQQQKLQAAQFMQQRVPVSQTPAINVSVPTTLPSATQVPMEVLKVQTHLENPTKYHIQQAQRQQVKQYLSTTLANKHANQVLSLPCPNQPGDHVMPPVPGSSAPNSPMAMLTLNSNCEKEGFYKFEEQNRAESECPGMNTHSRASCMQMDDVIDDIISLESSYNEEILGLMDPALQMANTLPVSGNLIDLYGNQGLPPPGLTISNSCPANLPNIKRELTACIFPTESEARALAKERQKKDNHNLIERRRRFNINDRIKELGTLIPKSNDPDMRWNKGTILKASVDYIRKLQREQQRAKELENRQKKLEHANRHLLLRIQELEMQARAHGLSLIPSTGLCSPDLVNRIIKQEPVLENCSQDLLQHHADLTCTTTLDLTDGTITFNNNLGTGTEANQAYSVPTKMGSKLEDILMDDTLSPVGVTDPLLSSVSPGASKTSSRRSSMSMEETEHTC

[19] = target: T3, V-type proton ATPase subunit c'; experiment: Dose Response of Small Molecules that Regulate V-ATPase Proton Transport in Yeast using pHLuorin, Powder Set1.; type: functional; conditions: read-out: EC50_MICROM
[20] = target: Dual specificity tyrosine-phosphorylation-regulated kinase 4 (Homo sapiens, UniProt Q9NR20); type: functional
Dual specificity tyrosine-phosphorylation-regulated kinase 4, sequence (Q9NR20 whole entry): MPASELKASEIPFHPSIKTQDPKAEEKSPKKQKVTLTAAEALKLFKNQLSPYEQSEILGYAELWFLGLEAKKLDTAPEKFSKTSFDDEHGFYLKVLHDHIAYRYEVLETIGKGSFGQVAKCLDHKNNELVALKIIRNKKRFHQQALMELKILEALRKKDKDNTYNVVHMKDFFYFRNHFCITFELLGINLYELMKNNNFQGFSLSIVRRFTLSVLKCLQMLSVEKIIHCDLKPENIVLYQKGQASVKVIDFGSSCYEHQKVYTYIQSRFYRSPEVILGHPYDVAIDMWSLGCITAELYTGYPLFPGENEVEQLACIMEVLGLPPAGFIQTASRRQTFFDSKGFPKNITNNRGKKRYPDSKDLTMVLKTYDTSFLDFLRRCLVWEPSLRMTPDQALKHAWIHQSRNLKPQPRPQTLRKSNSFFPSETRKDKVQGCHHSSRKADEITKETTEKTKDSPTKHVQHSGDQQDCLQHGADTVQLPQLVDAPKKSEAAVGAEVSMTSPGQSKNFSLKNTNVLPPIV

[21] = target: Mitogen-activated protein kinase 13 (Homo sapiens, UniProt O15264); type: functional
Mitogen-activated protein kinase 13, sequence (O15264 whole entry): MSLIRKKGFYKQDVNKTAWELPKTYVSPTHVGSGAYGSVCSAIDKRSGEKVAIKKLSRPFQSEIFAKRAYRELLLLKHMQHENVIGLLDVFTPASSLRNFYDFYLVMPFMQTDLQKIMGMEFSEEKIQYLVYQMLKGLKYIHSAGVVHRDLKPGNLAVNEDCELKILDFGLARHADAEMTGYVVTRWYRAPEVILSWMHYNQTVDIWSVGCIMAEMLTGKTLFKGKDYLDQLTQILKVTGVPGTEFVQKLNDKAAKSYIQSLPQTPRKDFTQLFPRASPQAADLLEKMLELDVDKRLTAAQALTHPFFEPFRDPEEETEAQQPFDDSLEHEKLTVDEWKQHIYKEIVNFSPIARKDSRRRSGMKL

[22] = target: MAP kinase-activated protein kinase 3 (Homo sapiens, UniProt Q16644); type: functional;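 note: value comes from a kinome-wide profiling panel in which MAPKAPK3 is one of the panel members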
[23] = target: Eukaryotic elongation factor 2 kinase (Homo sapiens, UniProt O00418); type: functional
Eukaryotic elongation factor 2 kinase, sequence (O00418 whole entry): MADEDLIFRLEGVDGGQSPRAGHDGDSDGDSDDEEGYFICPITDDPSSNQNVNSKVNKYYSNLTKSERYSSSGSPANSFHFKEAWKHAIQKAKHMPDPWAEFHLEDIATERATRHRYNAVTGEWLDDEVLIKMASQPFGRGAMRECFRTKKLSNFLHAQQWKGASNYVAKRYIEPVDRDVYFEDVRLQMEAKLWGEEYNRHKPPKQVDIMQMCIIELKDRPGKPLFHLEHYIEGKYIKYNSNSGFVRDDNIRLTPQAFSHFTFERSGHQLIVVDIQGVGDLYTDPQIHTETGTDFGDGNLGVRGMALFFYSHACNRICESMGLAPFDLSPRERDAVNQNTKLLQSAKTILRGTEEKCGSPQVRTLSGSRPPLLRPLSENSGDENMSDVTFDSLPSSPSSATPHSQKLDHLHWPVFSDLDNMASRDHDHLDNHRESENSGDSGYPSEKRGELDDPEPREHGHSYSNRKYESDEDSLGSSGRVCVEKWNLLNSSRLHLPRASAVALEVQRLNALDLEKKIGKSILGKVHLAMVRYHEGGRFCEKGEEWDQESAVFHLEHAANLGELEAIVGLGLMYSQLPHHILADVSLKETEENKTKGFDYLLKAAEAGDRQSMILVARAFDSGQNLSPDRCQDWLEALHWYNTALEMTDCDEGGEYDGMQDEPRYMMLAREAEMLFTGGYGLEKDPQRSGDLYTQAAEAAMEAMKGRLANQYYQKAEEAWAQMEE

[24] = target: Homeodomain-interacting protein kinase 4 (Homo sapiens, UniProt Q8NE63); type: functional
Misshapen-like kinase 1 = Misshapen-like kinase 1 (Homo sapiens, UniProt Q8N4C8); type: functional;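 note: kinome panel screen with MINK as the panel member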
[25] = target: Protein kinase C gamma type (Homo sapiens, UniProt P05129); type: functional
[26] = target: Inhibitor of nuclear factor kappa-B kinase subunit alpha (Homo sapiens, UniProt O15111); type: functional
[27] = target: Megakaryocyte-associated tyrosine-protein kinase (Homo sapiens, UniProt P42679); type: functional;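 note: affinity measured as one member of a kinase panel (Navigating the Kinome) against MATK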
Megakaryocyte-associated tyrosine-protein kinase, sequence (P42679 whole entry): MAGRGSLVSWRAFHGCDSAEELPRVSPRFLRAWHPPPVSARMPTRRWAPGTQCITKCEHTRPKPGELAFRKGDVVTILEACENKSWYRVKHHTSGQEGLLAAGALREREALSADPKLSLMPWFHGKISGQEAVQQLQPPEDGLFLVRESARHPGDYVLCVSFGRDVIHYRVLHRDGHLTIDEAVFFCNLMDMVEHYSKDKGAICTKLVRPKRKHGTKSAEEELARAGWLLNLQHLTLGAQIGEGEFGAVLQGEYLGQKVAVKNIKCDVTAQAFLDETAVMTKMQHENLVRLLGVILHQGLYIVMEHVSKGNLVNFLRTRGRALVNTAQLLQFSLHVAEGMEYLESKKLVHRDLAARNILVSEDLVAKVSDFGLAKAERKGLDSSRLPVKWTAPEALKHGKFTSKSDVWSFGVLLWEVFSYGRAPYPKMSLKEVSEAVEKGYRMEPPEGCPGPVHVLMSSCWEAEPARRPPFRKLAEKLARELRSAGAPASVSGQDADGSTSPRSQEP

[28] = target: Serine/threonine-protein kinase Nek4 (Homo sapiens, UniProt P51957); type: functional
[29] = target: Serine/threonine-protein kinase Chk2 (Homo sapiens, UniProt O96017); type: functional;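 note: CHEK2 entry within a kinome-wide screening panel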
[30] = target: Inhibitor of nuclear factor kappa-B kinase subunit beta (Homo sapiens, UniProt O14920); type: functional

T1 sequence (O43614 whole entry): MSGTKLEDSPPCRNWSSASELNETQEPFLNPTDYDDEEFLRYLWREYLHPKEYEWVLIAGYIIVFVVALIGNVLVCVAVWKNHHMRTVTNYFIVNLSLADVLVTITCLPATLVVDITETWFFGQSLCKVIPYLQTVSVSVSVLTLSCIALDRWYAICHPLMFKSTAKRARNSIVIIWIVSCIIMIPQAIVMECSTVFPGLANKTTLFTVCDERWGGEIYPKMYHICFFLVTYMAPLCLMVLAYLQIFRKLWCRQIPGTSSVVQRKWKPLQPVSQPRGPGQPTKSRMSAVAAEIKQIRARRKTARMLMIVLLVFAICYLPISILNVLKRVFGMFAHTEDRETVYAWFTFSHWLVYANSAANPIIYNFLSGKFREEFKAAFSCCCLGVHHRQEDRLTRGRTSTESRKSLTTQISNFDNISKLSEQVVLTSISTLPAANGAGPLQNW

OCC1(Cc2cccc(Cl)c2)CCCN(Cc2ccc3cc(F)ccc3n2)C1 (stereo not drawn)
IC50 (Orexin receptor type 2 [1]): 6.7 µM (active)
IC50 (CHO-K1): > 66.2 µM (inactive)
IC50 [2]: 6.33 µM (active)
CC50 [3]: > 40 µM (active)
IC50 [4]: > 5.53 µM (active)
IC50 (Orexin receptor type 2 [5]): 25.1 µM (inactive)
IC50 [6]: 31.4 µM (inactive)

c1ccc(Cn2cc(-c3ccc4[nH]nc(-c5ccccc5)c4c3)nn2)cc1
Ki [7]: 0.00398 µM (active)
Ki [8]: 0.0316 µM (active)
Ki [9]: 0.2 µM (active)
Ki [10]: 0.00794 µM (active)
Ki [11]: 0.251 µM (active)
Ki [12]: 0.0398 µM (active)
Ki [13]: 3.98 µM (active)
Ki [14]: 0.02 µM (active)
Ki [15]: 0.631 µM (active)

O=C(Nc1ccccc1N1CCOCC1)c1ccc([N+](=O)[O-])o1
AC50 [16]: 3.63 µM (active)
EC50 [17]: 25.3 µM (active)
AC50 [18]: 11.9 µM (active)
EC50 [19]: 4.18 µM (active)

CCC(CO)Nc1nc(NCc2ccccc2)c2ncn(C(C)C)c2n1 (stereo not drawn) [(RS)-ROSCOVITINE]
Ki [20]: > 7.94 µM (inactive)
Ki [21]: > 7.94 µM (inactive)
Ki [8]: > 3.16 µM (inactive)
Ki [22]: > 10 µM (inactive)
Ki [23]: > 3.98 µM (inactive)
Ki [24]: 1.58 µM (active)
Ki (Misshapen-like kinase 1): > 7.94 µM (inactive)
Ki [25]: > 7.94 µM (inactive)
Ki [26]: > 3.98 µM (inactive)
Ki [27]: > 2 µM (inactive)
Ki [28]: > 6.31 µM (inactive)
Ki [29]: > 5.01 µM (inactive)
Ki [30]: > 3.16 µM (inactive)
